Here are results for eight molecules from US11191769B2, “Fused thiophene compounds” (BioTheryX, Inc., priority 2018, dated 2021).

Holding throughout (type): cell-based
The target of assay [1] is T1, IKAROS (Homo sapiens, UniProt Q13422+Q96SW2).
T1 construct: endogenous in cells; host or cells: MV-4-11
The assay is described as follows: IKAROS degradation assay (Western blot, MV-4-11 cells). Particulars: 6-8 hours; for IKAROS % degradation at 1 µM: MV4-11, 1 μM. As to the method:
(§1) MV-4-11 cells were grown in RPMI 1640 media supplemented with 10% fetal bovine serum, streptomycin and penicillin.
(§2) Cells were cultured at approximately 10^6 cells per mL and incubated in DMSO or the indicated compound for 6-8 hours. Whole cell extracts were prepared using RIPA buffer according to manufacturer's protocol (Pierce). Briefly, 3×10^6 cells were washed once in PBS, the cell pellets were resuspended in RIPA buffer and allowed to incubate for 15 minutes on ice. Cells debris was removed by centrifugation and the cleared whole cell lysates were transferred to new tubes for further analysis.
(§3) For Western blot analysis, whole cell protein extracts were separated on 4-12% SDS-polyacrylamide gels, transferred to nitrocellulose and probed with the indicated primary antibodies. Membranes were subsequently washed and probed with the appropriate IRDye secondary antibodies (LI-COR). The signal was detected using the Odyssey Imaging System (LI-COR).
(§4) The following antibodies were used in these studies: Anti-eRF3/GSPT1: Abcam, ab126090 (Cambridge, Mass.); Anti-Ikaros: Abcam, ab191394 (Cambridge, Mass.); Anti-CK1α: Abcam, ab108296 (Cambridge, Mass.); β-actin (8H10D10) mouse monoclonal antibody: Cell Signaling Technology, #3700 (Danvers, Mass.); IRDye 680RD Goat anti-rabbit antibody: LI-COR, 926-68071 (Lincoln, Nebr.); IRDye 800CW Goat anti-mouse antibody: LI-COR, 926-32210 (Lincoln, Nebr.).
(§5) In each of Tables 1-4, the % degradation values are reported as “A”, “B”, “C”, or “D”. “A” represents a % degradation value of less than 25% (value<25%). “B” represents a % degradation value of equal to or more than 25% and less than 50% (25%≤value<50%). “C” represents a % degradation value of equal to or more than 50% and less than 75% (50%≤value <75%). “D” represents a % degradation value of equal to or more than 75% (value≥75%).
In general terms: In western blotting, separated proteins are transferred to a membrane and probed.

For assay [2], the target named is T2, CK1α (Homo sapiens, UniProt P48729+Q96SW2).
T2 construct: Whole cell extracts were prepared using RIPA buffer; endogenous in cells; host or cells: MV-4-11
In words: CK1α degradation assay (Western blot, MV-4-11 cells). Particulars: MV4-11, 6-8 hours. As to the method: as §1, §2, §3, §4, §5

Assay [3] concerns the target T3, GSPT1 (Homo sapiens, UniProt P15170+Q96SW2).
T3 construct: Whole cell extracts were prepared using RIPA buffer; endogenous in cells; host or cells: MV-4-11
In words: GSPT1 degradation assay (Western blot, MV-4-11 cells). Conditions: 6-8 hours. The procedure:
as §1, §2, §3, §4, §5

Assay [4] relates to IL-1β. The assay is described as follows: IL-1β inhibition assay, LPS-induced PBMCs or CD14+ monocytes, Meso Scale. Conditions: 1 h pretreatment, 100 ng/mL LPS 18-24 h, supernatant, read-out: I1-1β % Inhibition at 10 μM. The procedure: (§6) Either frozen primary blood mononuclear cells (PBMCs) or frozen CD14+ mobilized peripheral blood monocytes were purchased from AllCells (PB003F, Normal Peripheral Blood MNC (Alameda, Calif.)). Cells were quick thawed, washed 1-time with RPMI-1640 (10% FBS/1% Pen-Strep) and plated in 96 well plates at 200,000 cells per well. Cells were pretreated with DMSO only or with the indicated compound for 1 h and then induced with 100 ng/mL lipopolysaccharide (LPS) for 18-24 h. The supernatant was analyzed for IL-1β, IL-6, and TNFα, using Meso Scale assay according to manufacturer's protocol. The negative control wells were treated with DMSO.
(§7) In each of Tables 5-7, the % inhibition values are reported as “A”, “B”, “C”, or “D”. “A” represents a % inhibition value of less than 50% (value <50%). “B” represents a % inhibition value of equal to or more than 50% and less than 70% (50%≤value<70%). “C” represents a % inhibition value of equal to or more than 70% and less than 90% (70%≤value<90%). “D” represents a % inhibition value of equal or more than 90% (value≥90%). In Table 8, the fold-change values are reported as “A”, “B”, “C”, or “D”. “A” represents a fold-change value of equal to or less than 1 (value≤1). “B” represents a fold-change value of more than 1 and equal to or less than 2 (1<value≤2). “C” represents a fold-change value of more than 2 and equal to or less than 3 (2<value≤3). “D” represents a fold-change value of more than 3 (value>3).

Assay [5] deals with IL-6. The assay is described as follows: IL-6 inhibition assay, LPS-induced PBMCs or CD14+ monocytes, Meso Scale. Particulars: 1 h pretreatment, 100 ng/mL LPS 18-24 h, supernatant. The procedure:
as §6, §7

The test system of assay [6] is IL-2. In words: IL-2 fold-change assay, anti-CD3 stimulated PBMCs, Mesoscale. Conditions: PBMC, PBMCs on anti-human CD3 (OKT3) coated plates, 24 h, fold difference from the DMSO control. The procedure:
For the IL-2 analysis, 96 well plates were precoated with 1 μg/mL anti-human CD3 antibody (OKT3, eBioscience Inc., San Diego, Calif.). After washing with PBS, the indicated compound was added (50 μL/well) followed by PBMCs diluted at 3-4 million cells/mL (150 μL/well). Plates were incubated for 24 h and the supernatants collected for Mesoscale IL-2 analysis. IL-2 activity is measured as fold difference from the DMSO control.
as §7

The test system of assay [7] is MOLM-13 cells. In words: MOLM-13 cell viability assay (CellTiter-Glo). Conditions: Homo sapiens, MOLM-13, 72 h, 3 days, % of DMSO control. The procedure:
MOLM-13 cells were cultured in RPMI 1640 media supplemented with 10% fetal bovine serum, streptomycin and penicillin, and were plated in white walled 96-well plates at 2500 cells/well. Cells were incubated in DMSO (control) or the indicated compound for 3 days at 37° C. and 5% CO2. Following the incubation period, 100 μL of CellTiterGlow (CTG) reagent (CellTiter-Glo® Luminescent Cell Viability Assay, Promega (Madison, Wis.)) was added to each well. Following a 10 minutes incubation with shaking, luminescence was measured using the EnVision Multimode plate reader.
The MOLM-13 cell viability values as % DMSO are reported as “A”, “B”, “C”, or “D”. “A” represents a % viability value of less than 25% (value<25%). “B” represents a % viability value of equal to or more than 25% and less than 50% (25%≤value<50%). “C” represents a % viability value of equal to or more than 50% and less than 75% (50%≤value<75%). “D” represents a % viability value of equal or more than 75% (value≥75%).
In general terms: In ATP-based viability assays light output follows the ATP content of the culture.

Assay [8] relates to TNFα. In words: TNF-α inhibition assay, LPS-induced PBMCs or CD14+ monocytes, Meso Scale. Particulars: 1 h pretreatment, 100 ng/mL LPS 18-24 h, supernatant. As to the method:
as §6, §7

T1 sequence (Q13422 whole entry): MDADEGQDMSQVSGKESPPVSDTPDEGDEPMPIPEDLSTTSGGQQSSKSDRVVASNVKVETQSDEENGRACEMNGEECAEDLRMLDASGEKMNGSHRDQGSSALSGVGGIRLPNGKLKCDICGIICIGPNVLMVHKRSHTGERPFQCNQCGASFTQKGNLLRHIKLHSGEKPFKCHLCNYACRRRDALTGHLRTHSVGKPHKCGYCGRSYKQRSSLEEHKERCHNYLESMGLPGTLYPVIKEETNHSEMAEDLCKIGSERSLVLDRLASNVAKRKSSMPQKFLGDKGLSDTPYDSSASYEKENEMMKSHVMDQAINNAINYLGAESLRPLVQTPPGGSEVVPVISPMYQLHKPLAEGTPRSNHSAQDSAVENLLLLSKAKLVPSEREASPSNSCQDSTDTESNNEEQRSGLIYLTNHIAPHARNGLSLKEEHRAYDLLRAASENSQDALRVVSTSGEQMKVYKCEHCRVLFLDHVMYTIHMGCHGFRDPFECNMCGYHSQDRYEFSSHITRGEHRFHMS
T1 sequence (Q96SW2 whole entry): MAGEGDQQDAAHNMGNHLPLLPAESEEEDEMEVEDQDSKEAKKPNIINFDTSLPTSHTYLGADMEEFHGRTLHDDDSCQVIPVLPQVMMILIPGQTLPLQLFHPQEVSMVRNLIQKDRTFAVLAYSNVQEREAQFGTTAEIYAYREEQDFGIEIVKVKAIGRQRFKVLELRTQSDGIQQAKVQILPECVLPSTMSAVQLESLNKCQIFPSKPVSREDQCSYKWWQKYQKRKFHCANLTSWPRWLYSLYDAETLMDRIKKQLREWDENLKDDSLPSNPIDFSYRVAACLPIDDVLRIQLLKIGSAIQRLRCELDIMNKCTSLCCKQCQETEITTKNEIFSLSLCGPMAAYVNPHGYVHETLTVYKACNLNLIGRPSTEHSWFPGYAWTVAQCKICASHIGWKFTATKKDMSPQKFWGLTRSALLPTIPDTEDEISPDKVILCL
T1 sequence (Q16531 whole entry partner): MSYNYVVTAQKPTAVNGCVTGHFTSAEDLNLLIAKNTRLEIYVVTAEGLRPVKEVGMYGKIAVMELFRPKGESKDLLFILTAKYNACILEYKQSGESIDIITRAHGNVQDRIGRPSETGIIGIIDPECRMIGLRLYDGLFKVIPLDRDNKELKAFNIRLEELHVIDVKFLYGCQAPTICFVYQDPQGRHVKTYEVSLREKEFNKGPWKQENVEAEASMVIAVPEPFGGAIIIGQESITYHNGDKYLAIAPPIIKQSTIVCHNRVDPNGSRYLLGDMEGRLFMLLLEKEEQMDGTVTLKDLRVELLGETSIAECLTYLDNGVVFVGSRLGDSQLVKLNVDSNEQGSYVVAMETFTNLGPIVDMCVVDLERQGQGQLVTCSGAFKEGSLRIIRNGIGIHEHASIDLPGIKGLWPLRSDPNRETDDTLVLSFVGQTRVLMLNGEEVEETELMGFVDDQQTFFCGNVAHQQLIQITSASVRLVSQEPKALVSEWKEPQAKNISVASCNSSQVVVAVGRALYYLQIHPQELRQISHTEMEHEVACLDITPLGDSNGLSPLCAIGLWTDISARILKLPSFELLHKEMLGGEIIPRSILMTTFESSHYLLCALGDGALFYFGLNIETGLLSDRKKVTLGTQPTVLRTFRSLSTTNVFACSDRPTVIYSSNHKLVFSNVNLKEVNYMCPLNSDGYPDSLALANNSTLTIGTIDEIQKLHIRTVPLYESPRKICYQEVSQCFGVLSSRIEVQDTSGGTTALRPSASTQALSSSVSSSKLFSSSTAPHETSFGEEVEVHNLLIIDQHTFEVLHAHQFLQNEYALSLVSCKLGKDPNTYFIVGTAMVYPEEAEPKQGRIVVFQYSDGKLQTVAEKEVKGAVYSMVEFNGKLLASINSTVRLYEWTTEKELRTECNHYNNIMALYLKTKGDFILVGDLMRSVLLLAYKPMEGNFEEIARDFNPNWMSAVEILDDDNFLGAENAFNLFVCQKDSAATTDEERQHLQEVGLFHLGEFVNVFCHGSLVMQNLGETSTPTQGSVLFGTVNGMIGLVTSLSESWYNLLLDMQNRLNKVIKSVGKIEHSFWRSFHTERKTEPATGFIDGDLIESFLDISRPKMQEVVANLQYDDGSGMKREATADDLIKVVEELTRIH
T3 sequence (P15170 whole entry): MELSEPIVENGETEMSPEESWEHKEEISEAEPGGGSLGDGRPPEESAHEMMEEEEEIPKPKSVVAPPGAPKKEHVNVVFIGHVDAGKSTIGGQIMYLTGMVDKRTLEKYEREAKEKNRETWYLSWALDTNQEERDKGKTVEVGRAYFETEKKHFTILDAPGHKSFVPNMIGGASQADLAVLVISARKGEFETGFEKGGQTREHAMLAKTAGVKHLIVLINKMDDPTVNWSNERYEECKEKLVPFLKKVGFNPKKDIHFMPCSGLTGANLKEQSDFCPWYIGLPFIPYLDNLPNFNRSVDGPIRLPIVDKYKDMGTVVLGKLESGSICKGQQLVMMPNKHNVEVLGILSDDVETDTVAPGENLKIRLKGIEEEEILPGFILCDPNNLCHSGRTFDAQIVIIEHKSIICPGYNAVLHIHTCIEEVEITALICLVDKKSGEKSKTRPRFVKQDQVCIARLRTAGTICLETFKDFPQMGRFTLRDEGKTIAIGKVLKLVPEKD
T3 sequence (Q96SW2 whole entry): as the sequence (Q96SW2 whole entry) above
T3 sequence (Q16531 whole entry partner): as the sequence (Q16531 whole entry partner) above
T2 sequence (P48729 whole entry): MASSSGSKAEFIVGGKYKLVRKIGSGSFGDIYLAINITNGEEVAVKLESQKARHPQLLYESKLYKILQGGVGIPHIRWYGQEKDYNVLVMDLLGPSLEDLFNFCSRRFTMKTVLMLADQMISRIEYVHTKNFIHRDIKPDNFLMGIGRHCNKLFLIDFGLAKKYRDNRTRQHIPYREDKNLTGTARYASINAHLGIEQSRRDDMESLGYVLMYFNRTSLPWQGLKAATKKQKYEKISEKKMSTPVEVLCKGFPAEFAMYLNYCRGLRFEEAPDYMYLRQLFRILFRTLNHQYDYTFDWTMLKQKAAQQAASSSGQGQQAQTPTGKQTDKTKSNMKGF
T2 sequence (Q96SW2 whole entry): as the sequence (Q96SW2 whole entry) above
T2 sequence (Q16531 whole entry partner): as the sequence (Q16531 whole entry partner) above

The term inhibition denotes the percentage by which the read-out fell short of the control. The term fold induction denotes the signal under treatment as a multiple of the control signal. As usually defined, the viability is a per cent measure of how many cells are alive, often set against a control. Low values mean a greater loss of cells, high ones better survival. As to `O=C1CC[C@H](N2Cc3c(csc3COc3ccc(CN4CCOCC4)cc3)C2=O)C(=O)N1` [Compound 1, (S)-3-(1-((4-(morpholinomethyl)phenoxy)methyl)-4-oxo-4H-thieno[3,4-c]pyrrol-5(6H)-yl)piperidine-2,6-dione], the IKAROS % degradation at 1 µM in assay [1] was at least 75%. Besides, the percent degradation at 1 µM in assay [2] was at least 75%. In addition, in assay [3], the “GSPT1 % Degradation at 1 μM” value was “C (“C” represents a % degradation value of equal to or more than 50% and less than 75% (50%≤value <75%))”. For the same molecule, the inhibition at 10 µM in assay [4] was over 90%; in assay [5] it was 50 to 70%. Also, the fold induction at 10 µM in assay [6] was 1 to 2. In assay [7], this molecule registered a viability at 10 µM of 50 to 75%.
Regarding `O=C1CC[C@H](N2Cc3c(OCc4ccc(CN5CCOCC5)cc4)csc3C2=O)C(=O)N1` [Compound 2, (S)-3-(3-((4-(morpholinomethyl)benzyl)oxy)-6-oxo-4H-thieno[2,3-c]pyrrol-5(6H)-yl)piperidine-2,6-dione], the “GSPT1 % Degradation at 1 μM” value in assay [3] was “B (“B” represents a % degradation value of equal to or more than 25% and less than 50% (25%≤value<50%))”. Also, the inhibition at 10 µM in assay [4] and in assay [8] was under 50% in each case. Also, the fold induction at 10 µM in assay [6] was 1 to 2.
As to `O=C1CCC(N2Cc3c(CCc4ccc(CN5CCOCC5)cc4)csc3C2=O)C(=O)N1` (centres unmarked) [Compound 4], the IKAROS % degradation at 1 µM in assay [1] lay in the range of 25 to 50%. In assay [2], this molecule yielded a percent degradation at 1 µM of 25 to 50%. Besides, the “GSPT1 % Degradation at 1 μM” value in assay [3] was “B (“B” represents a % degradation value of equal to or more than 25% and less than 50% (25%≤value<50%))”. Besides, the fold induction at 10 µM in assay [6] lay in the range of 2 to 3.
For the molecule `O=C1CC[C@H](N2Cc3c(csc3COc3ccc(CN4CCCC4)cc3)C2=O)C(=O)N1` [Compound 13, (S)-3-(4-oxo-1-((4-(pyrrolidin-1-ylmethyl)phenoxy)methyl)-4H-thieno[3,4-c]pyrrol-5(6H)-yl)piperidine-2,6-dione], the IKAROS % degradation at 1 µM in assay [1] was 25 to 50%. Besides, in assay [2], the percent degradation at 1 µM lay in the range of 50 to 75%. Further, the inhibition at 10 µM in assay [4] is over 90%; in assay [5] it was 50 to 70%; in assay [8], over 90%. The fold induction at 10 µM in assay [6] is 2 to 3. In assay [7], this molecule returned a viability at 10 µM of 50 to 75%.
With `CCN(CC)Cc1ccc(OCc2scc3c2CN([C@H]2CCC(=O)NC2=O)C3=O)cc1` [Compound 14, (S)-3-(1-((4-((diethylamino)methyl)phenoxy)methyl)-4-oxo-4H-thieno[3,4-c]pyrrol-5(6H)-yl)piperidine-2,6-dione], in assay [1], the “IKAROS % Degradation at 10 μM” value was “B (“B” represents a % degradation value of equal to or more than 25% and less than 50% (25%≤value<50%))”. The molecule further registered a percent degradation at 1 µM in assay [2] of 50 to 75%. In addition, the inhibition at 10 µM in assay [4] was 70 to 90%; in assay [5], under 50%; in assay [8], 70 to 90%. In addition, in assay [6], the fold induction at 10 µM lay within 2 to 3. In assay [7], the viability at 10 µM was in the range of 50 to 75%.
With `CC1CN(Cc2ccc(OCc3scc4c3CN([C@H]3CCC(=O)NC3=O)C4=O)cc2)CC(C)O1` (stereo partly drawn) [Compound 17, (3S)-3-(1-((4-((2,6-dimethylmorpholino)methyl)phenoxy)methyl)-4-oxo-4H-thieno[3,4-c]pyrrol-5(6H)-yl)piperidine-2,6-dione], the IKAROS % degradation at 1 µM in assay [1] was in the range of 50 to 75%. This molecule also came in with a percent degradation at 1 µM in assay [2] of at least 75%. In addition, the inhibition at 10 µM was 70 to 90% in assay [4], under 50% in assay [5] and over 90% in assay [8]. In assay [6], this molecule yielded a fold induction at 10 µM of 1 to 2. Also, in assay [7], the viability at 10 µM fell in the range of 50 to 75%.
Regarding `CN(C)Cc1ccc(OCc2scc3c2CN([C@H]2CCC(=O)NC2=O)C3=O)cc1` [Compound 18, (S)-3-(1-((4-((dimethylamino)methyl)phenoxy)methyl)-4-oxo-4H-thieno[3,4-c]pyrrol-5(6H)-yl)piperidine-2,6-dione], the “IKAROS % Degradation at 10 μM” value in assay [1] is “C (“C” represents a % degradation value of equal to or more than 50% and less than 75% (50%≤value <75%))”. In assay [2], this molecule gave a percent degradation at 1 µM of at least 75%. Also, the values for the inhibition at 10 µM in assay [4] and in assay [8] were 50 to 70% and 70 to 90%, respectively. The same molecule gave a fold induction at 10 µM in assay [6] of 2 to 3. Moreover, the viability at 10 µM in assay [7] is under 25%.
For `CC1COCC(C)N1Cc1ccc(OCc2scc3c2CN([C@H]2CCC(=O)NC2=O)C3=O)cc1` (stereo partly drawn) [Compound 19, (3S)-3-(1-((4-((3,5-dimethylmorpholino)methyl)phenoxy)methyl)-4-oxo-4H-thieno[3,4-c]pyrrol-5(6H)-yl)piperidine-2,6-dione], the IKAROS % degradation at 1 µM in assay [1] was 50 to 75%. In assay [2], the percent degradation at 1 µM was at least 75%. Besides, in assay [3], the “GSPT1 % Degradation at 1 μM” value was “C (“C” represents a % degradation value of equal to or more than 50% and less than 75% (50%≤value <75%))”. For the same molecule, the inhibition at 10 µM in assay [4] was 70 to 90%; in assay [5] it was under 50%; in assay [8], 70 to 90%. In assay [6], this molecule displayed a fold induction at 10 µM of at most 1. This molecule displayed a viability at 10 µM in assay [7] of 50 to 75%.
